From patent US6710041B2, “Pyrrolo[2,1-B][3,1] benzothiazepines and their use for the preparation of medicaments with antipsychotic activity” (Sigma-Tau Industrie Farmaceutiche Riunite S.p.A., priority 2003, dated 2004)
Blank lines part the entries; values can stand above or below the compound they belong to.

Experiments:
[1] = test system: Wistar male rats; assay: Evaluation of catalepsy (bar test); assay type: in vivo, rat
Protocol: The test was performed on Wistar male rats (N=7 animals); catalepsy was evaluated by means of a metal bar measuring 0.6 cm in diameter positioned at a distance of 10 cm from the work surface. The substance studied, in the form of maleic acid salt (ST1699), was administered subcutaneously 30 minutes prior to the evaluation. The subsequent evaluation times were 60, 90, 120, 180, 240, and 300 minutes after administration.
By means of the test used for evaluating catalepsy in the rat, ST1699 affinity for the D2 receptor subtype of the nigrostriatal dopaminergic system was verified.
Table 4 gives the percentages of animals presenting catalepsy at the various different times after administration of subacute doses of the study compound.

[2] = test system: 5-HT2 versus D2 receptor; assay: Classification of typical and atypical antipsychotics by 5-HT2 versus D2 pKi ratio and Log Y score; settings: for LogY: Log Y score smaller than 6.48 = atypical profile
[3] = target: T1, H1 histamine receptor (Rattus norvegicus, UniProt P31390); assay: Interaction with H1 receptors, [3H]-pyrilamine binding, rat cortex membranes; settings: Table 1; mean and standard deviation; read-out: H1 Ki ± ds
T1 construct: from tissue; host or cells: rat cortex membranes
T1 sequence (P31390 whole entry): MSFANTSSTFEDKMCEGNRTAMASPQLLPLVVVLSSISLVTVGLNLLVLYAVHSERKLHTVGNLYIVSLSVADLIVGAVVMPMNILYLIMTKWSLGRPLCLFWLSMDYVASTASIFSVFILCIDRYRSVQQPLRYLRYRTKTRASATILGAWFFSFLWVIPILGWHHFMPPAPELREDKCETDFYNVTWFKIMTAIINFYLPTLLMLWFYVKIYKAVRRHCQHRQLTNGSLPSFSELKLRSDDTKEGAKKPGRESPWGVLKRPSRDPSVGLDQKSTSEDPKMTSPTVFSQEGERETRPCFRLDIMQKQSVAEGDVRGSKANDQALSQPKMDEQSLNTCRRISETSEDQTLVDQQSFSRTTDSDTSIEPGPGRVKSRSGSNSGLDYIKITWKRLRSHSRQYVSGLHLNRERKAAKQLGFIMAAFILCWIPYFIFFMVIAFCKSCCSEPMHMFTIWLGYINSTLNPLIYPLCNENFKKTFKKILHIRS

Structure (SMILES): O=C(CCCN1CCC(O)(c2ccc(Cl)cc2)CC1)c1ccc(F)cc1 [Haloperidol, haloperidol, reference compound]
- percentage of animals presenting catalepsy ([1]; 0.2 mg/kg, 30 min after administration): 0%
- percentage of animals presenting catalepsy ([1]; 0.2 mg/kg, 60 min after administration): 70%
- percentage of animals presenting catalepsy ([1]; 0.2 mg/kg, 90 min after administration): 100%
- percentage of animals presenting catalepsy ([1]; 0.2 mg/kg, 120 min after administration): 100%
- percentage of animals presenting catalepsy ([1]; 0.2 mg/kg, 180 min after administration): 100%

- LogY [2]: 8.20
- Ki [3]: 2.7 ± 0.02 nM
Structure (SMILES): CN1CCN(C2=Cn3cccc3Sc3ccc(Cl)cc32)CC1 [ST1508, 7-chloro-9-(4-methyl-1-piperazinyl)pyrrolo[2,1-b][1,3]benzothiazepine]

Structure (SMILES): CN1CCN(C2=Cn3cccc3Sc3ccc(Cl)cc32)CC1 [ST1699, 7-chloro-9-(4-methyl-1-piperazinyl)pyrrolo[2,1-b][1,3]benzothiazepine]
- percentage of animals presenting catalepsy ([1]; 0.3 mg/kg subcutaneously, 30 min after administration): 0%
- percentage of animals presenting catalepsy ([1]; 0.3 mg/kg subcutaneously, 60 min after administration): 0%
- percentage of animals presenting catalepsy ([1]; 0.3 mg/kg subcutaneously, 90 min after administration): 17%
- percentage of animals presenting catalepsy ([1]; 0.3 mg/kg subcutaneously, 120 min after administration): 17%
- percentage of animals presenting catalepsy ([1]; 0.3 mg/kg subcutaneously, 180 min after administration): 33%
- percentage of animals presenting catalepsy ([1]; 0.6 mg/kg subcutaneously, 30 min after administration): 33%
- percentage of animals presenting catalepsy ([1]; 0.6 mg/kg subcutaneously, 60 min after administration): 66%
- percentage of animals presenting catalepsy ([1]; 0.6 mg/kg subcutaneously, 90 min after administration): 83%
- percentage of animals presenting catalepsy ([1]; 0.6 mg/kg subcutaneously, 120 min after administration): 100%
- percentage of animals presenting catalepsy ([1]; 0.6 mg/kg subcutaneously, 180 min after administration): 100%
- occurrence of catalepsy ([1]; in words, highest dose among those used (0.6 mg/kg), effects comparable to 0.2 mg/kg of haloperidol): induced the occurrence of catalepsy

- LogY [2]: 3.19
- binding affinity at 5 HT2 receptor compared with D2 dopamine receptor ([2]; in words): greater than D2 dopamine receptor
Structure (SMILES): Cc1ccc2n1C=C(N1CCN(C)CC1)c1ccccc1S2 [ST2092, 1-Methyl-9-(4-methylpiperazin-1-yl)pyrrolo[2,1-b][1,3]benzothiazepine]
